Measured values as given in patent EP1001761B1, “USE OF CHOL[…] TREATING ATTENTION DEFICIT DISORDERS” (priority 1997, dated 1999).
Counter-ions that a name gives are not always drawn.

Key:
patients with ADD = assay: treatment of two ADD patients, measured by ANT (Amsterdam Neuropsychological Tests), reaction times for different tasks; type: in vivo; conditions: for After: mean / After: miss (Missed task) / After: Fa (Failed attempt): after treatment
Text: The protocol in this case is first a baseline testing before medication and retesting after 2 days on medication and then after a week repeated testing. Ecological scales were also used before and are now being evaluated after one week after two weeks etc. for a treatment of one month duration.

solubility in water = type: physicochemical; conditions: room temperature
Protocol: Galantamine and its acid addition salts form crystals. […] If necessary, pharmaceutically-acceptable suspension aids may be employed. Typically, such a suspension will be employed at a concentration of 0.1-50 mg/ml, such as 1-50 mg/ml, more commonly 5-40 mg/ml, for example, 5-30 mg/ml or 10-40 mg/ml, such as 10-30 mg/ml, especially 20-30 mg/ml of galantamine.

Structure (SMILES) | improvement in attention (reduction in time to complete certain tasks and with fewer errors), normalized data, error analysis (patients with ADD; two patients, 2.5 mg 3 times a day) | After: mean (patients with ADD; Patient A, task Baseline) [ms] | After: mean (patients with ADD; Patient A, task Focused Att.) [ms] | After: miss (Missed task) (patients with ADD; Patient A, task Focused Att.) | After: Fa (Failed attempt) (patients with ADD; Patient A, task GoNoGo) | After: mean (patients with ADD; Patient A, task GoNoGo) [ms] | After: miss (Missed task) (patients with ADD; Patient A, task GoNoGo) | After: Fa (Failed attempt) (patients with ADD; Patient A, task Sustained Att.) | After: mean (patients with ADD; Patient A, task Sustained Att.) [ms] | After: miss (Missed task) (patients with ADD; Patient A, task Sustained Att.) | After: mean (patients with ADD; Patient B, task Baseline) [ms] | After: mean (patients with ADD; Patient B, task Focused Att.) [ms] | After: miss (Missed task) (patients with ADD; Patient B, task Focused Att.) | After: Fa (Failed attempt) (patients with ADD; Patient B, task GoNoGo) | After: mean (patients with ADD; Patient B, task GoNoGo) [ms] | After: miss (Missed task) (patients with ADD; Patient B, task GoNoGo) | After: Fa (Failed attempt) (patients with ADD; Patient B, task Sustained Att.) | After: mean (patients with ADD; Patient B, task Sustained Att.) [ms] | After: miss (Missed task) (patients with ADD; Patient B, task Sustained Att.) | solubility in water (solubility in water)
COc1ccc2c3c1O[C@H]1C[C@@H](O)C=C[C@@]31CCN(C)C2 [galantamine hydrobromide] | over 2.5 standard deviations |  |  |  |  |  |  |  |  |  |  |  |  |  |  |  |  |  |  | 
COc1ccc2c3c1O[C@H]1C[C@@H](O)C=C[C@@]31CCN(C)C2 [galantamine] |  | 727 | 1352 | 0 | 2 | 655 | 1 | 6 | 1222 | 4 | 780 | 1166 | 3 | 3 | 766 | 3 | 50 | 1152 | 20 | only sparingly soluble
